Here are results for 19 compounds from PubChem BioAssay (NCI).

Among the test systems are OVCAR-4 ovarian; HOP-62 NSCLC; HT29 colon; UACC-257 melanoma; MCF7 breast; HCT-116 colon; IGROV1 ovarian; U251 CNS; NCI-H460 lung; A549 NSCLC.
Holding throughout (experiment): NCI tumour cell line growth inhibition, 48 h

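Following 48 hours of exposure in 96-well plates, responses at five concentrations were used to interpolate endpoints linearly. At the GI50, growth is halved. Definition used: TGI = concentration required for complete inhibition of growth.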

In the case of `COC(=O)NC1C(C)OC(OC2C/C=C(/C)C3C=CC4C(OC5CC(OC6CC(OC7CC(O)C(O)C(C)O7)C(OC7CC(O)C(OC)C(C)O7)C(C)O6)C(O)C(C)O5)C(C)CC(C)C4C3(C)/C(O)=C3\C(=O)OC4(CC(C)C(CO)=CC4/C=C\2C)C3=O)CC1(C)[N+](=O)[O-]` (stereo unspecified), the TGI in the test on OVCAR-4 ovarian was 46.2 µM; in the test on HOP-62 NSCLC, 37.8 µM; in the test on HT29 colon, 20.5 µM; with UACC-257 melanoma, 57.8 µM; in the test with MCF7 breast, over 100 µM; with HCT-116 colon, 3.09 µM. Further, the TGI was 34 µM in the test with IGROV1 ovarian, 44.9 µM in the test with U251 CNS, 4.86 µM with NCI-H460 lung and over 100 µM in the test on A549 NSCLC.
For the compound `CC1(C=O)CCC23COC4(CCC5C6(C)CCC(OC7OCC(OC8OC(CO)C(O)C(OC9OC(CO)C(O)C(O)C9O)C8OC8OCC(O)C(O)C8O)C(O)C7OC7OC(CO)C(O)C(O)C7O)C(C)(C)C6CCC5(C)C4(C)CC2O)C3C1` (stereo unspecified), the TGI worked out at 2.38 µM in the test with OVCAR-4 ovarian; 3.6 µM in the test with HOP-62 NSCLC; 2.07 µM in the test with HT29 colon; 2.07 µM with MCF7 breast; 2.74 µM in the test with HCT-116 colon; 2.88 µM with IGROV1 ovarian. For the same compound, the TGI with U251 CNS was over 100 µM; in the test with NCI-H460 lung it was 2.55 µM; with A549 NSCLC, 3.53 µM.
Regarding `COc1cc([N+](=O)[O-])ccc1N1C(=O)C2c3[nH]c4ccccc4c3C3CCC(C(C)(C)C)CC3C2C1=O` (stereo unspecified), the TGI in the test with OVCAR-4 ovarian is over 100 µM; in the test on HOP-62 NSCLC, 81.2 µM; in the test with HT29 colon, over 100 µM; with UACC-257 melanoma, over 100 µM; in the test on MCF7 breast it was over 100 µM; with HCT-116 colon, over 100 µM. For the same compound, the TGI with IGROV1 ovarian was over 100 µM; with U251 CNS, 25.4 µM; with NCI-H460 lung it was over 100 µM; with A549 NSCLC it was over 100 µM.
For `CC1C(=O)C(C)C(c2ccco2)N(N=O)C1c1ccco1` (stereo unspecified), the TGI in the test with OVCAR-4 ovarian, in the test on HOP-62 NSCLC, in the test on HT29 colon, with UACC-257 melanoma, in the test with MCF7 breast and with HCT-116 colon was over 100 µM in each case. Further, the TGI with IGROV1 ovarian, in the test on U251 CNS, with NCI-H460 lung and in the test with A549 NSCLC was over 100 µM in each case.
Regarding `CCOC(=O)Nc1cc2c(c(N)n1)N=C(c1ccc3ccccc3c1)CN2`, the TGI in the test with OVCAR-4 ovarian was over 64.6 µM; in the test with HT29 colon, 1.5 µM; in the test on UACC-257 melanoma, over 100 µM; with MCF7 breast it was over 100 µM; in the test with HCT-116 colon it was 1.49 µM; in the test on IGROV1 ovarian it was over 100 µM. The TGI with U251 CNS is over 100 µM; with NCI-H460 lung, 3.33 µM; in the test on A549 NSCLC it was 23.8 µM.
Regarding `C[n+]1c2ccccc2c(CNC(CS)C(=O)O)c2ccccc21` (stereo unspecified), the TGI is over 100 µM with OVCAR-4 ovarian; 39.1 µM in the test with HOP-62 NSCLC; over 100 µM with HT29 colon; over 100 µM in the test with UACC-257 melanoma; 37.8 µM with HCT-116 colon; 67.2 µM in the test with IGROV1 ovarian. Besides, the TGI with U251 CNS was determined as 66.7 µM; in the test on NCI-H460 lung it was 47.9 µM; in the test on A549 NSCLC, 83.9 µM.
Consider `CC1(O)COCCCCOc2c(CN)cccc2NC(=O)c2nc(cnc2N)-c2ccc(cc2)S(=O)(=O)C(C)(C)C1` (stereo unspecified), for which the GI50 was 1290 nM in the test on OVCAR-4 ovarian; 1260 nM in the test on HOP-62 NSCLC; 408 nM in the test on HT29 colon; 1760 nM with UACC-257 melanoma; under 10 nM in the test on MCF7 breast; 129 nM in the test with HCT-116 colon. Moreover, the GI50 is 1280 nM with IGROV1 ovarian, 715 nM in the test on U251 CNS, under 10 nM in the test on NCI-H460 lung and 290 nM in the test with A549 NSCLC. The TGI with OVCAR-4 ovarian came out at 2.71 µM; with HOP-62 NSCLC, 3.17 µM; with HT29 colon, 2.47 µM; in the test with UACC-257 melanoma, 3.35 µM; with MCF7 breast, 1.89 µM; in the test with HCT-116 colon, 1.12 µM. Besides, the TGI with IGROV1 ovarian was found to be 2.7 µM; in the test on U251 CNS, 2.22 µM; with NCI-H460 lung, 1.94 µM; with A549 NSCLC, 2.34 µM.
For the compound `C[N+](C)(C)CCN[N+]1(C)CCCc2ccccc21` (stereo unspecified), the TGI with OVCAR-4 ovarian, in the test on HOP-62 NSCLC, in the test on HT29 colon, in the test with UACC-257 melanoma, in the test with MCF7 breast and in the test on HCT-116 colon was over 100 µM in each case. Further, the TGI in the test on IGROV1 ovarian, with U251 CNS, in the test with NCI-H460 lung and with A549 NSCLC was over 100 µM throughout.
For the compound `Cc1c2cc[n+](C)cc2c(C)c2c1oc1ccccc12`, the TGI with OVCAR-4 ovarian is 21.8 µM; in the test on HOP-62 NSCLC it was 11.2 µM; in the test on HT29 colon, over 77.1 µM; in the test with UACC-257 melanoma, 17.9 µM; with MCF7 breast it was 70.5 µM; with HCT-116 colon, 24.5 µM. Further, the TGI in the test on IGROV1 ovarian is 52.6 µM; in the test on U251 CNS, 3.37 µM; with NCI-H460 lung, 16.7 µM; in the test on A549 NSCLC, 36.5 µM.
`Oc1ccc(-c2nc3cc(F)ccc3s2)cc1`: the TGI was found to be 36.9 µM with OVCAR-4 ovarian; 63 µM in the test on HOP-62 NSCLC; 56.7 µM in the test on HT29 colon; 69.6 µM in the test on UACC-257 melanoma; 28.5 µM in the test with MCF7 breast; 42.1 µM with HCT-116 colon. Further, the TGI with IGROV1 ovarian was found to be 43.4 µM; in the test with U251 CNS it was 42.6 µM; in the test on NCI-H460 lung, 48.8 µM; in the test with A549 NSCLC it was 40.6 µM.
As to `O=C(NC(Cc1ccc(I)cc1)C(=O)O)c1ccc(Cl)cc1` (stereo unspecified), the TGI in the test with OVCAR-4 ovarian, in the test with HOP-62 NSCLC, with HT29 colon, with UACC-257 melanoma, in the test on MCF7 breast and in the test with HCT-116 colon was over 100 µM in each case. Moreover, the TGI in the test with IGROV1 ovarian, in the test with U251 CNS, in the test on NCI-H460 lung and in the test on A549 NSCLC was over 100 µM in each case.
On to `CS(=O)(=O)OCCN(CCOS(C)(=O)=O)c1ccc(/C=N/Nc2ncnc3nc[nH]c23)cc1`, for which the TGI in the test on OVCAR-4 ovarian worked out at 60 µM; with HOP-62 NSCLC, 74.8 µM; in the test with HT29 colon, 65.9 µM; in the test with UACC-257 melanoma, 48.9 µM; in the test on HCT-116 colon, 59.9 µM; in the test on IGROV1 ovarian, 71.6 µM. Moreover, the TGI in the test with U251 CNS was determined as 53.5 µM; with NCI-H460 lung it was 34.3 µM; in the test with A549 NSCLC, 96.6 µM.
For `CNC(C)Cc1ccccc1OC` (stereo unspecified), the TGI in the test on OVCAR-4 ovarian, in the test on HOP-62 NSCLC, with HT29 colon, with UACC-257 melanoma, with HCT-116 colon and with IGROV1 ovarian was over 100 µM in each case. Moreover, the TGI in the test with U251 CNS, in the test on NCI-H460 lung and with A549 NSCLC was over 100 µM in each case.
For `CCCCCCCN(CCCCCCC)CC(O)c1cc2ccccc2c2cc(Br)ccc12` (stereo unspecified), the TGI in the test with OVCAR-4 ovarian was over 100 µM; with HOP-62 NSCLC, over 100 µM; with HT29 colon, over 100 µM; with UACC-257 melanoma, over 100 µM; in the test on MCF7 breast, 48 µM; in the test on HCT-116 colon, over 100 µM. For the same compound, the results for the TGI in the test on IGROV1 ovarian, in the test with U251 CNS and in the test on NCI-H460 lung were over 100 µM, 45.6 µM and over 100 µM, respectively.
`O=C1OC2(OC2c2ccc(Cl)cc2)c2ccccc21` (stereo unspecified): the TGI in the test with OVCAR-4 ovarian was over 100 µM; in the test with HOP-62 NSCLC it was 41.6 µM; with HT29 colon, over 100 µM; with HCT-116 colon it was over 100 µM; in the test with IGROV1 ovarian, over 100 µM; in the test with NCI-H460 lung it was over 100 µM. Besides, in the test on A549 NSCLC, the TGI was over 100 µM.
On to `Cc1ccc([N+](=O)[O-])cc1S(=O)(=O)Nc1ccc(C2=NOC(c3ccccc3O)C2)cc1` (stereo unspecified), for which the TGI was 22.4 µM with OVCAR-4 ovarian; over 100 µM in the test on HOP-62 NSCLC; 30.8 µM in the test with HT29 colon; over 100 µM in the test on UACC-257 melanoma; 14 µM in the test on MCF7 breast; 34.5 µM with HCT-116 colon. Also, the TGI with IGROV1 ovarian is over 100 µM; in the test with NCI-H460 lung, 25.3 µM; in the test on A549 NSCLC it was 71.8 µM.
Take `CO/N=C(\C)c1cccc(Nc2nc3ccccc3c3occc23)c1`: the TGI in the test on OVCAR-4 ovarian amounted to 31.8 µM; in the test with HOP-62 NSCLC, 28.7 µM; with HT29 colon, 17.6 µM; in the test on UACC-257 melanoma, 3.69 µM; with MCF7 breast, 36.8 µM; in the test with HCT-116 colon, 23.8 µM. Moreover, the TGI worked out at 33.2 µM in the test on U251 CNS, 29.6 µM in the test with NCI-H460 lung and 30 µM in the test on A549 NSCLC.
Consider `CCc1ccc2c(c1)C(=O)c1c-2n(CCCN)c(=O)c2cc([N+](=O)[O-])ccc12`, for which the GI50 was 1390 nM in the test on OVCAR-4 ovarian; 1370 nM with HOP-62 NSCLC; 452 nM in the test on HT29 colon; 1880 nM with UACC-257 melanoma; 362 nM in the test on MCF7 breast; 573 nM in the test on HCT-116 colon. Further, the figures for the GI50 in the test on IGROV1 ovarian, in the test on U251 CNS and with NCI-H460 lung were 1220 nM, 1070 nM and 167 nM, respectively. In addition, the TGI with OVCAR-4 ovarian amounted to 3 µM; with HOP-62 NSCLC it was 2.78 µM; in the test on HT29 colon, 2.07 µM; with UACC-257 melanoma, 3.42 µM; in the test on MCF7 breast it was 1.6 µM; in the test with HCT-116 colon, 1.89 µM. The TGI with IGROV1 ovarian was 2.56 µM; in the test on U251 CNS, 2.29 µM; in the test with NCI-H460 lung, 0.504 µM.
On to `CCO[C@]12CCC[C@H]1[C@@H]1C(=O)c3ccccc3C(=O)C1=C(C)O2`, for which the TGI in the test with OVCAR-4 ovarian is 97.9 µM; in the test on HOP-62 NSCLC, over 100 µM; with HT29 colon it was over 100 µM; in the test on UACC-257 melanoma, over 100 µM; in the test with MCF7 breast it was 35.8 µM; in the test on IGROV1 ovarian, over 100 µM. Further, the TGI in the test with U251 CNS, with NCI-H460 lung and in the test on A549 NSCLC was over 100 µM in each case.
